Among the test systems are A549; BT-549; HOP-92; HT-29; M14; NCI-H460; NCI-H522; NCI/ADR-RES; OVCAR-4; RXF 393; SF-268; SK-MEL-28; SK-MEL-5; SNB-19; T47D; TK-10; UACC-62; UO-31; IGROV-1; SK-OV-3.
Common to all, as to experiment: DTP human tumour cell line panel, 48 h

The values that follow come from ChEMBL document CHEMBL1201862, “PubChem BioAssay data set” (2004).

The structures appear in SMILES notation.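 Cells were grown in 96-well plates and exposed to each compound for 48 hours at five concentrations; endpoints were interpolated linearly between bracketing concentrations, or set to the highest concentration if not reached. At the GI50, growth is halved.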 Activity calls are given as the source filed them. No stated cut-off is given here; in the data, active = GI50 up to about 1.1 µM and inactive = higher. Where a SMILES comes first, the peptide text is derived from it. The star is where a group is joined. Boc = CC(C)(C)OC(=O)*; tBu = CC(C)(C)* Bounds are passed on as bounds.

Turning to `CCCCOc1ccc(S(=O)(=O)N/C(=N\O)Nc2ccc(Cl)cc2)cc1`, the GI50 in the test on A549 is 16.1 µM (inactive); in the test on BT-549, 13.4 µM (inactive); with HOP-92, 4.79 µM (inactive); in the test on HT-29, 17.2 µM (inactive); with M14 it was 15.2 µM (inactive); with NCI-H460, 15.4 µM (inactive). The GI50 with NCI-H522 is 14.7 µM (inactive); in the test with NCI/ADR-RES it was 15.8 µM (inactive); in the test on OVCAR-4 it was 10.8 µM (inactive); in the test on RXF 393, 15.2 µM (inactive); with SF-268, 16 µM (inactive); in the test on SK-MEL-28, 18.2 µM (inactive). The GI50 was 14.3 µM (inactive) with SK-MEL-5; 15.2 µM (inactive) with SNB-19; 6.64 µM (inactive) with T47D; 15 µM (inactive) with TK-10; 15.2 µM (inactive) in the test with UACC-62; 12.2 µM (inactive) in the test with UO-31.
Turning to `COc1cc(OC)c(OC)cc1/C=C/c1ccc2ccccc2n1`, the GI50 in the test with A549 is > 10 µM (inactive); with BT-549 it was 8.89 µM (inactive); in the test on HOP-92 it was 5.57 µM (inactive); with HT-29, 4.35 µM (inactive); with IGROV-1, > 10 µM (inactive); with M14 it was > 10 µM (inactive). For the same molecule, the GI50 in the test on NCI-H522 was 5.41 µM (inactive); with NCI/ADR-RES it was 7.6 µM (inactive); in the test with OVCAR-4, > 10 µM (inactive); in the test with SF-268, > 10 µM (inactive); in the test on SK-MEL-28, > 10 µM (inactive); with SK-MEL-5, 8.77 µM (inactive). The GI50 with SK-OV-3 was > 10 µM (inactive); with T47D, 6.97 µM (inactive); in the test on TK-10, > 10 µM (inactive); in the test on UACC-62, 6.44 µM (inactive).
With `C/C=C1/CN2CCC34c5ccccc5N(C)C23C2CC1C4(C(=O)OC)C(O)O2` (stereo unspecified), the GI50 in the test with A549, in the test with BT-549, in the test with HOP-92, in the test with HT-29, with IGROV-1 and with M14 was > 100 µM (inactive) throughout. The GI50 in the test with NCI-H460, with NCI-H522, in the test with NCI/ADR-RES, in the test on OVCAR-4, in the test on SF-268 and with SK-MEL-28 was > 100 µM (inactive) each time. Moreover, the GI50 in the test on SK-MEL-5, with SK-OV-3, with SNB-19, with T47D, in the test on TK-10 and in the test on UACC-62 was > 100 µM (inactive) in each case. In addition, in the test with UO-31, the GI50 was > 100 µM (inactive).
For the molecule `CN(C)CCn1c(=O)c2ccc(NCCN3CCNCC3)c3c(=O)c4ccccc4n(c1=O)c23`, the GI50 with A549 is 0.962 µM (active); with BT-549, 7.33 µM (inactive); in the test with HOP-92 it was 0.776 µM (active); in the test with HT-29, 0.82 µM (active); with IGROV-1, 0.345 µM (active); in the test on M14 it was 4.84 µM (inactive). For the same molecule, the GI50 is 0.586 µM (active) in the test on NCI-H460; 1.07 µM (active) in the test on NCI-H522; 9.93 µM (inactive) in the test with NCI/ADR-RES; 5.69 µM (inactive) with OVCAR-4; 1.13 µM (inactive) with SF-268; 6.61 µM (inactive) with SK-MEL-28. In addition, the GI50 in the test on SK-MEL-5 is 3.47 µM (inactive); with SK-OV-3 it was 3.45 µM (inactive); in the test on SNB-19 it was 2.94 µM (inactive); with T47D it was 9.68 µM (inactive); in the test with TK-10, 4.86 µM (inactive); in the test with UACC-62, 3.47 µM (inactive). Also, in the test on UO-31, the GI50 was 4.94 µM (inactive).
Take `CC12CCCC3(CC(=O)C(C)(C)C3C(=O)C1)C2` (stereo unspecified): the GI50 with A549, with BT-549, in the test with HOP-92, in the test on HT-29, in the test with IGROV-1 and in the test with M14 was > 100 µM (inactive) in each case. For the same molecule, the GI50 in the test on NCI-H460, in the test on NCI-H522, with NCI/ADR-RES, in the test with OVCAR-4, with SF-268 and in the test with SK-MEL-28 was > 100 µM (inactive) in each case. The GI50 in the test on SK-MEL-5, in the test on SK-OV-3, in the test on SNB-19, in the test on T47D, in the test with TK-10 and with UACC-62 was > 100 µM (inactive) each time. Also, the GI50 in the test on UO-31 was > 100 µM (inactive).
In the case of `CCOC(=O)[C@H]1O[C@@H]1C(=O)NC(CC(C)C)C(=O)NCCC(C)C` (stereo partly specified), the GI50 with A549, in the test on BT-549, with HOP-92, in the test with HT-29, in the test with IGROV-1 and in the test on M14 was > 100 µM (inactive) each time. Moreover, the GI50 in the test with NCI-H460, in the test with NCI-H522, in the test on NCI/ADR-RES, with OVCAR-4, in the test on SF-268 and in the test on SK-MEL-28 was > 100 µM (inactive) throughout. Besides, the GI50 with SK-MEL-5, in the test on SK-OV-3, in the test on SNB-19, in the test on T47D, in the test on UACC-62 and in the test with UO-31 was > 100 µM (inactive) each time.
`Cc1nn(C(=O)c2ccncc2)c2c1C(c1ccccc1)SC(=N)N2` (stereo unspecified): the GI50 with A549, with BT-549, in the test on HOP-92, with HT-29, in the test on IGROV-1 and in the test on M14 was > 10 µM (inactive) each time. The GI50 in the test on NCI-H460, in the test with NCI-H522, in the test with NCI/ADR-RES, in the test with OVCAR-4, in the test with RXF 393 and in the test with SF-268 was > 10 µM (inactive) throughout. The GI50 in the test with SK-MEL-28, in the test on SK-MEL-5, with SK-OV-3, with SNB-19, with T47D and with TK-10 was > 10 µM (inactive) each time. Further, the GI50 in the test with UACC-62 is > 10 µM (inactive).
Take `CC(OC(C)(C)C)C(NC(=O)C(N)CCCCNC(=O)OC(C)(C)C)C(=O)NC(Cc1ccccc1)C(=O)O` (stereo unspecified) (H-Lys(Boc)-Thr(tBu)-Phe-OH; configuration not given here): the GI50 in the test with A549, with BT-549, with HOP-92, in the test with HT-29, with IGROV-1 and with M14 was > 100 µM (inactive) each time. The GI50 in the test with NCI-H460, in the test with NCI/ADR-RES, in the test with OVCAR-4, in the test on RXF 393, with SF-268 and with SK-MEL-28 was > 100 µM (inactive) each time. The GI50 with SK-MEL-5 was > 100 µM (inactive); in the test with SK-OV-3, 15.2 µM (inactive); with SNB-19 it was > 100 µM (inactive); with T47D, > 100 µM (inactive); with TK-10 it was > 100 µM (inactive); with UACC-62 it was > 100 µM (inactive). For the same molecule, in the test with UO-31, the GI50 is > 100 µM (inactive).
`CNN1C(=O)c2c(C)c(C)c(C#N)c(N)c2C1=O`: the GI50 in the test on A549, in the test with BT-549, in the test on HOP-92, in the test with IGROV-1, in the test with M14 and in the test on NCI-H460 was > 100 µM (inactive) in each case. The GI50 was > 100 µM (inactive) in the test with NCI-H522; > 100 µM (inactive) with NCI/ADR-RES; > 100 µM (inactive) in the test on OVCAR-4; 40.8 µM (inactive) in the test with RXF 393; > 100 µM (inactive) in the test on SF-268; > 100 µM (inactive) with SK-MEL-28. The GI50 with SK-MEL-5, in the test with SNB-19, in the test on T47D, in the test with TK-10, with UACC-62 and in the test on UO-31 was > 100 µM (inactive) throughout.
As to `S=C(S)N1CCN(c2cccc(Cl)c2)CC1`, the GI50 in the test on A549 was > 100 µM (inactive); in the test with BT-549 it was 86.5 µM (inactive); in the test on HOP-92 it was 80.7 µM (inactive); in the test on HT-29 it was > 100 µM (inactive); with IGROV-1, > 100 µM (inactive); in the test with M14 it was > 100 µM (inactive). Further, the GI50 in the test on NCI-H522 is > 100 µM (inactive); with NCI/ADR-RES it was > 100 µM (inactive); in the test with RXF 393, > 100 µM (inactive); in the test on SF-268, 76.4 µM (inactive); in the test on SK-MEL-28 it was 39.8 µM (inactive); in the test with SK-MEL-5, 27.9 µM (inactive). Further, the GI50 with SNB-19 is > 100 µM (inactive); with T47D, 34.6 µM (inactive); with TK-10, > 100 µM (inactive); in the test on UACC-62 it was > 100 µM (inactive); with UO-31 it was 30.8 µM (inactive).
On to `CCOC(=O)c1nc2ccc(C(F)(F)F)cc2[nH]c1=O`, for which the GI50 with A549, in the test on BT-549, with HOP-92, with HT-29, in the test on IGROV-1 and in the test with M14 was > 100 µM (inactive) throughout. Further, the GI50 in the test with NCI-H460, with NCI/ADR-RES, in the test on OVCAR-4, in the test on RXF 393, with SF-268 and with SK-MEL-28 was > 100 µM (inactive) throughout. Further, the GI50 with SK-MEL-5, in the test on SK-OV-3, in the test with SNB-19, with T47D, in the test with TK-10 and in the test with UACC-62 was > 100 µM (inactive) throughout. Also, the GI50 with UO-31 was > 100 µM (inactive).

In general, GI50 refers to the concentration giving 50% growth inhibition.
